Assays:
[1] = Cytotoxicity against mouse RAW264.7 cells assessed as cell survival up to 100 uM by MTT assay; type: cell-based; settings: read-out: Activity
[2] = Antiplatelet aggregation activity in New Zealand white rabbit platelet rich plasma assessed as inhibition of ADP-induced aggregation treated for 3 mins before ADP challenge by turbidimetric method; type: functional; settings: Oryctolagus cuniculus, Newzealand white
RAW264.7 [3] = test: Inhibition of nitric oxide production in LPS-stimulated mouse RAW264.7 cells at 100 uM by Griess reagent assay; type: functional
RAW264.7 [4] = test: Inhibition of nitric oxide production in LPS-stimulated mouse RAW264.7 cells by Griess reagent assay; type: functional, cell-based

Row | IC50 [2] [µM] | IC50 (RAW264.7 [4]) [µM] | SMILES | viability [1] [%] | inhibition at 100 µM (RAW264.7 [3]) [%]
1 | > 200 |  | CC1(C)C(=O)CC[C@]2(C)[C@H]3CCC4=CC(=O)O[C@@H]4[C@@]3(C)C(=O)C[C@@H]12 [KRAVANHIN C] | 90 | < 10
2 |  | 40.4 | CNC(=N)NCCC[C@H](N)C(=O)O [TILARGININE] |  | 
3 | > 200 |  | C=C1CC[C@H]2[C@](C)(CO)[C@@H](O)CC[C@]2(C)[C@H]1C/C=C1\CCOC1=O | 90 | < 10
4 | > 200 | 36.2 | CC1(C)CCC[C@]2(C)[C@H]3CCC4=CC(=O)O[C@@H]4[C@@]3(C)C(=O)C[C@@H]12 [KRAVANHIN B] | 90 | < 10
5 | 58.9 |  | CC(=O)Oc1ccccc1C(=O)O [ASPIRIN] |  | 
6 | > 200 |  | CC1(C)[C@@H](O)CC[C@]2(C)[C@H]3CCC4=CC(=O)O[C@@H]4[C@@]3(C)C(=O)C[C@@H]12 [KRAVANHIN A] | 90 | < 10
7 | > 200 |  | C=C1CC[C@H]2C(C)(C)CCC[C@]2(C)[C@H]1C/C=C(/CO)[C@@H](O)CO | 90 | < 10
8 | 58.9 |  | C=C1CC[C@H]2[C@](C)(CO)[C@@H](O)CC[C@]2(C)[C@H]1CCC1=CC(=O)OC1 | 90 | < 10
9 | > 200 |  | CC1(C)CCC[C@]2(C)[C@H]3CC=C(CCO)C(O)[C@@]3(C)C(=O)C[C@@H]12 (some centres undefined) [KRAVANHIN D] | 90 | < 10
